Where “and” joins values, the source holds several entries; their conditions need not be identical. Equal entries are not always repeated.

This is an account of results in patent US20260091049A1, “HALIDE-FREE AMMONIUM SILANES” (TOPIKOS SCIENTIFIC, INC., priority 2022, published 2026).

Series [1] in a line: Polymerization stability in aqueous media by LCMS/MS quantification of hydrolyzed trisiloxy species. The format is physicochemical.
Series [2] can be described thus: Clarity and dissolution of the solid product in water. The format is physicochemical. Here is the method: A 500 mL round bottom reaction vessel was outfitted with an oil bath, stir bar, distillation head and condenser, receiving flask, oil bubbler, gas inlet that allows argon to pass through vessel and distillation setup, an immersion thermoprobe for the oil bath, and a thermoprobe for the head. The reactor is charged with 47.6 mL of a 42% methanolic solution of dimethyloctadecyl[3-(trimethoxysilyl)propyl]ammonium chloride (Aldrich), 200 mL DMF, 27.7 g (3 equiv.) of N-Tris(hydroxymethyl)methyl-2-aminoethanesulfonic acid (TES) and 8.7 mL of 25% MeONa in MeOH. The mixture is heated to 125 degrees C. (oil temp) and the methanol is collected by distillation. As the reaction is heated a homogenous solution is formed. As the methanol is distilled off a white precipitate begins to form. The reaction is heated until the head temp drops and no more MeOH is evolved (about 1.5 hours). The reaction is then cooled to room temperature and the precipitate (NaCl) is removed by filtration through a glass fiber filter and the DMF was concentrated to about 100 mL total volume at reduced pressure. The solution is cooled to rt. A 1 L flask under argon and a stir bar is charged with anhydrous acetonitrile (1000 mL) and cooled to ˜10 C. The DMF solution is added slowly to rapidly stirring acetonitrile to form a white suspension. Stirring is continued for 30 minutes. […]

As to `CCCCCCCCCCCCCCCCCC[N+](C)(C)CCC[Si](O)(O)O` [Compound 1 hydrolysis product], the “2022 Concentration of Compound 1 hydrolysis product, average” value in series [1] (average of three measurements after storage under ambient conditions for multiple years) is on record as “Average: 58.3 μg/mL”. Besides, in series [1] (average of three measurements, reference value immediately after preparation), the “2019 Concentration of Compound 1 hydrolysis product, average” value was “Average: 62.6 μg/mL”. Moreover, the “stability to polymerization in aqueous media” value in series [1] (over prolonged periods of time) is listed as “excellent stability to polymerization”. Moreover, the “2022 Concentration of Compound 1 hydrolysis product” value in series [1] (single measurements after storage under ambient conditions for multiple years, expected 60 μg/mL, expressed as Compound 1 equivalent) was 59.2 µg/mL and 54.8 µg/mL and 60.9 µg/mL. Also, the “2019 Concentration of Compound 1 hydrolysis product” value in series [1] (single measurements immediately after preparation, Compound 1 diluted in water to expected 60 μg/mL, expressed as Compound 1 equivalent) is 69.1 µg/mL and 54.3 µg/mL and 64.4 µg/mL.

For `CCCCCCCCCCCCCCCCCC[N+](C)(C)CCC[Si](OCC(CO)(CO)NCCS(=O)(=O)[O-])(OCC(CO)(CO)NCCS(=O)(=O)O)OCC(CO)(CO)NCCS(=O)(=O)O` [Example 1, 2-[[1-[[3-[dimethyl(octadecyl)ammonio]propyl-[3-hydroxy-2-(hydroxymethyl)-2-(2-sulfoethylamino)propoxy]-[3-hydroxy-2-(hydroxymethyl)-2-(2-sulfoethylamino)propoxy]silyl]oxymethyl]-2-hydroxy-1-(hydroxymethyl)ethyl]amino]-ethanesulfonate], the “time a solution in water remains clear” value in series [2] (1% solution in water) is reported as > 5 months. In addition, in series [2] (fine powder, water, gentle heating), the “dissolution of the powder in water” value is “dissolves quickly in water with gentle heating”.
